Test results reported in patent publication US20230103142A1, “SMALL MOLECULE REGULATORS OF NOTCH1 AND USES THEREOF” (THE PENN STATE RESEARCH FOUNDATION, priority 2020, published 2023).

Columns and labels:
[1] = system: Bladder Cancer cells (TCCSUP and HT1376); assay: MTT assay in bladder cancer cells with low basal Notch1; conditions: low basal level of Notch1, 24 h
Excerpt: Six biological replicates used for MTT assays and it was repeated twice for each experiment. Data are presented, from independent experiments, as the mean±standard deviation (SEM/SD). The Student's t-test was used to calculate the statistical significance between the vehicle and treatment at each concentration. *p<0.05, **p<0.01 and ***p<0.001. […] Six biological replicates used for MTT assays and it was repeated twice for each experiment. Data are presented, from independent experiments, as the mean±standard deviation (SEM/SD). The Student's t-test was used to calculate the statistical significance between the vehicle and treatment at each concentration. *p<0.05 and # Not significant.
Six biological replicates used for MTT assays and it was repeated twice for each experiment.

[2] = system: proteasome in ALDH+ cells; conditions: 15 and 30 min
Excerpt: Commercially available positive and negative controls were used for these experiments. […] Next, ubiquitination-associated NRR of Notch 1 degradation were examined.

Notch1/HCT116 clone C5 [3] = conditions: C5, IC50 dose, 24 h
Procedure: (§1) Cell invasion and migration assays: The invasive capability of pCMV/HCT116 and Notch1/HCT116 was evaluated in Boyden chambers, as described in earlier studies. HCT 116, SW-620, pCMV/HCT116, and Notch1/HCT116 cells were analyzed for migration capability with protocols already described in an earlier study. All experiments were performed in triplicate to achieve statistical relevance.

Notch1/HCT116 clone C4 [4] = conditions: C4, IC50 dose, 24 h
Procedure: as §1

pCMV/HCT116 cells [5] = conditions: pCMV/HCT116, IC50 dose, 24 h
Procedure: as §1

HCT116 cells [6] = conditions: HCT116, 24 h
Procedure: as §1

SW620 cells = conditions: SW620, 24 h
Procedure: as §1

MDA-MB-231 cells = assay: apoptosis assay
Notch3 in HCT116 cells = assay: immunoblot with Notch3 antibody; conditions: HCT116, IC50 concentration, 12 h and 24 h
Excerpt: (§5) Data are presented as the mean±standard deviation (SEM/SD) of three independent experiments. The Student's t-test was used to calculate the statistical significance between the vehicle and treatment at each concentration. *p<0.05 and **p<0.01.

Notch1/HCT116 clone C5 [7] = conditions: read-out: IC50 cell growth; C5 transfectants, 24 h
Procedure: (§2) Cell culture and supplies: HCT116, SW-620, TCCSUP, UMUC3, HT1376, 5637, T24 and RT4 cells were purchased from ATCC (American Type Culture Collection; Manassas, Va., USA). HCT116, T24, RT4 were maintained in McCoy's medium, TCCSUP, UMUC3, HT1376 in EMEM, SW620 in DMEM and 5637 in RPMI medium, respectively, and supplemented with 10% FBS and penicillin (100 units/mL) and streptomycin (100 units/mL; Millipore Sigma, St Louis, […]., USA) in the presence of 5% CO2 at 37° C. pCMV6-NOTCH1, vector pCMV6-Entry (NOTCH′ (NM_017617) Human ORF Clone; Origene) and NOTCH1 Human siRNA Oligo Duplex were obtained from Origene Technologies Inc. (Rockville, Md., USA). Lipofectamine 2000 reagent was used following the manufacturer's (Cat #11668019; ThermoFisher Scientific) instruction, transfection with overexpression vectors was performed with 500 ng plasmid concentration, while the siRNA was used in 25 nM concentration. Cells were allowed to be transfected for 48 hrs and later harvested or treated for further analysis. Neomycin ([…]) selection media was used to cultivate Notch1-overexpressing HCT116 clones (C1, C2, C3, C4, C5).

[8] = system: Notch1 silenced HCT116 cells; conditions: vs scrambled transfected HCT116, 24 h
Procedure: as §2

Notch1/HCT116 clone C4 [9] = conditions: read-out: IC50 cell growth; C4 transfectants, 24 h
Procedure: as §2

pCMV/HCT116 xenografts = assay: xenograft tumor growth study; conditions: 5 mg/kg intraperitoneally thrice a week, 4 weeks
Procedure: Xenograft studies: Six- to eight-week-old BALB/c athymic nude mice (nu/nu) (Jackson Laboratory: Bar Harbor, Me., USA) were subcutaneously injected with pCMV/HCT116 and C4 (1×10^6 cells). The monitoring and measurements were performed.

Notch2 in HCT116 cells = assay: immunoblot with Notch2 antibody; conditions: HCT116, IC50 concentration, 12 h and 24 h
Excerpt: as §5

purified NRR protein = conditions: vs vehicle (DMSO)
Procedure: (§3) Binding Studies. The protein-ligand binding was first studied by cellular thermal shift assay (CETSA) by following previously described protocol. […] Equal amount of cell lysate was used for ELISA with NRR antibody (Cat: NBP2-62557; Novus Biologicals). GloMelt Thermal Shift Protein Stability assay was performed as per the kit instructions (GloMelt™ Thermal Shift Protein Stability Kit; Biotium; Fermont, Calif.). […] A protein melt run profile was generated and Tm (melting temperature) was calculated using DNA melt curve software. To analyze protein melting, the Tm was considered at the lowest −dF/dT value (at the lowest point on the curve).

[10] = molecular target: NRR of Notch1 in HCT116 cells (Homo sapiens, UniProt P46531); conditions: ASR490-treated HCT116 cells
Chain of NRR of Notch1 in HCT116 cells (P46531 19-2555): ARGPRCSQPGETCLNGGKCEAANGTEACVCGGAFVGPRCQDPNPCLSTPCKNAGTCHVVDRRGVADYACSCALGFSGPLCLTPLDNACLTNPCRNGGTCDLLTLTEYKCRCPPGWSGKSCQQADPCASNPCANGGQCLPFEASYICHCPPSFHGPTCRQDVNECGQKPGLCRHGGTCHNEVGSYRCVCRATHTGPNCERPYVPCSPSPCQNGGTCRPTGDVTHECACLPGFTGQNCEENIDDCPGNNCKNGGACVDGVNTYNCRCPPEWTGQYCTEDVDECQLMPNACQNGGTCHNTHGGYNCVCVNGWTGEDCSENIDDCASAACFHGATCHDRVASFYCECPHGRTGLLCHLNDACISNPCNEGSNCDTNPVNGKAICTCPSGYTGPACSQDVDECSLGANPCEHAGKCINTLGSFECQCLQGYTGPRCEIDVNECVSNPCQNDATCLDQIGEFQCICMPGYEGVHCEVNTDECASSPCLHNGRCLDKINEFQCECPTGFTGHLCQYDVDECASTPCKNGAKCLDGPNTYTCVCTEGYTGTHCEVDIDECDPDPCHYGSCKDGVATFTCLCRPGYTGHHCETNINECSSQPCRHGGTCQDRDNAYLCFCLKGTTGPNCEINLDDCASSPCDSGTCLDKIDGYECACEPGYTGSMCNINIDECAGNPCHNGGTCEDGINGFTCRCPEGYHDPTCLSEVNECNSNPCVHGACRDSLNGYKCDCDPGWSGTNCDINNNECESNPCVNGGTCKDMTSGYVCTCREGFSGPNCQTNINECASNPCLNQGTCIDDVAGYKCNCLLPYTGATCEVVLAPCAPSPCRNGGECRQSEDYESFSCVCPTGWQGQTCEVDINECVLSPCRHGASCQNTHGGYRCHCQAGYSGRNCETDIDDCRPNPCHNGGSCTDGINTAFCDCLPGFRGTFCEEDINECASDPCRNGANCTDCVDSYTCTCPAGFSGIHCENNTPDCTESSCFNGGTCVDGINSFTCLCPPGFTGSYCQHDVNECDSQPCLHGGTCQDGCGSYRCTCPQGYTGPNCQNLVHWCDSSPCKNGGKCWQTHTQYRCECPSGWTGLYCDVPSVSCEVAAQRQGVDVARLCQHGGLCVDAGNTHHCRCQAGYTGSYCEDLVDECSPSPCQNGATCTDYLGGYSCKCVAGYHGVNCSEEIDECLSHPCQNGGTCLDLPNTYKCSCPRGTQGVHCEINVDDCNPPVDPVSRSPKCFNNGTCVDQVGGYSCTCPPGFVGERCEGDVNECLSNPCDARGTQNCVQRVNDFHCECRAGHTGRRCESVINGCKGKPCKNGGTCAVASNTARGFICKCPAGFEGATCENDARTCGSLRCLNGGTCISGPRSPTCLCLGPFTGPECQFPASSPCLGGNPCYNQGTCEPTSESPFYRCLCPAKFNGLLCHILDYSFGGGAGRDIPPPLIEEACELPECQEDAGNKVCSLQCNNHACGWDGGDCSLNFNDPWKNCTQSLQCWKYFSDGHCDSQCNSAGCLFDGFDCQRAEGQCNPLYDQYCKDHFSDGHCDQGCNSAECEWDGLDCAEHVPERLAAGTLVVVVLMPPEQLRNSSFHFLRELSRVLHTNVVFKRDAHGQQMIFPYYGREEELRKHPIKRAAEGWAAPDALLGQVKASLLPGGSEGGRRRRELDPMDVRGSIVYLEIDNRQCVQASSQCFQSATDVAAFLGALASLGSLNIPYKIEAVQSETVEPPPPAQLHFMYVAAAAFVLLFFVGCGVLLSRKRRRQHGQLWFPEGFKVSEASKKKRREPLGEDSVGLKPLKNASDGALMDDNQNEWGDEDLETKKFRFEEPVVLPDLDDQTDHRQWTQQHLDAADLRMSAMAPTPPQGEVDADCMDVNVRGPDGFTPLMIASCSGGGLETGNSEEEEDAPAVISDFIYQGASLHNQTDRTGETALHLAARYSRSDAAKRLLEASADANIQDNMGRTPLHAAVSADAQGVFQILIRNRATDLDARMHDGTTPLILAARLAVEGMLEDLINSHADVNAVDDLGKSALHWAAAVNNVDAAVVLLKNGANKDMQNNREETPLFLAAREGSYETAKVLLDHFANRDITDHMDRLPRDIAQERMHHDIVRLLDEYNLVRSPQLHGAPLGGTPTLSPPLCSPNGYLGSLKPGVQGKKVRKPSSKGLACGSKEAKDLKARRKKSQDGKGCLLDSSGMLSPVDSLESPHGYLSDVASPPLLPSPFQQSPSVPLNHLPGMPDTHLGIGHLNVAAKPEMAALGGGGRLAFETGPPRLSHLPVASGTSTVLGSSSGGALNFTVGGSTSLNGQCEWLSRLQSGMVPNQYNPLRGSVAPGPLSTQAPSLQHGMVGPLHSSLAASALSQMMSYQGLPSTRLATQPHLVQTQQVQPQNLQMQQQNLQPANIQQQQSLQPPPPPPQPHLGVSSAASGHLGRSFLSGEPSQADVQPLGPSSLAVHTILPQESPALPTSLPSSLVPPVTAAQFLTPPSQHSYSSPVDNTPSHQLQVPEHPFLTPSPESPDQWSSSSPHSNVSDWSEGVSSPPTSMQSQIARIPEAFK
Procedure: as §3

pCMV/HCT116 cells [11] = assay: colony forming assay
Procedure: (§6) Six biological replicates used for MTT assays and it was repeated twice for each experiment. […] The anchorage-independent growth assay was performed and repeated in triplicate.

Notch1/HCT116 clone C5 [12] = assay: colony forming assay
Procedure: as §6

Notch1/HCT116 clone C5 [13] = conditions: C5, IC50 concentration
Procedure: (§4) Flow cytometry analysis: 0.3×10^6 cells seeded in a 6 well plate and were cultured until 70-80% confluence was achieved. […] To quantify apoptosis, flow cytometry analysis of the Annexin V-FITC against Propidium Iodide (PI) assay was performed following a previously described protocol. The Apoptosis detection kit was purchased from BD Pharminogen™, San Diego, Calif., USA. All experiments were repeated in triplicate to achieve statistical relevance.

Notch1/HCT116 clone C4 [14] = conditions: C4, IC50 concentration
Procedure: as §4

pCMV/HCT116 cells [15] = conditions: pCMV/HCT116, IC50 concentration
Procedure: as §4

HCT116 cells [16] = conditions: HCT116, 24 h; remark: listed apart in the source
Procedure: as §4

SW-620 cells = conditions: SW-620, 24 h
Procedure: as §4

## CC1=C(CO)C(=O)O[C@@H]([C@@H](C)[C@H]2CC[C@H]3[C@@H]4C[C@H]5O[C@]56[C@@H](OC(=O)c5ccccn5)C=CC(=O)[C@]6(C)[C@H]4CC[C@]23C)C1 [ASR490, Pyridine-2-carboxylic acid {17-[1-(5-hydroxymethyl-4-methyl-6-oxo-3,6-dihydro-2H-pyran-2-yl)-ethyl]-10,13-dimethyl-1-oxo, 4,6,7,8,9,10,11,12,13,14,15,16,17-tetradecahydro-20-oxacyclopropa[5,6]cyclopenta[a]phenanthren-4-yl}ester]
[1]
  growth of bladder cancer cells: failed inhibit their growth
[2]
  proteasome inhibition: not a proteasomal inhibitor
Notch1/HCT116 clone C5 [3]
  decline in invasive capacity: 65.5%
Notch1/HCT116 clone C4 [4]
  decline in invasive capacity: 60.75%
pCMV/HCT116 cells [5]
  decline in invasive capacity: 40%
  decline in migratory potential: 25.11%
HCT116 cells [6]
  inhibition of migratory capability: 25.18%
SW620 cells
  inhibition of migratory capability: 32.36%
MDA-MB-231 cells; MDA MB-231, 24 h
  apoptosis: approximately 20
MDA-MB-231 cells; MDA MB-231, 48 h
  apoptosis: ~43
Notch3 in HCT116 cells
  Notch3 expression: no change
Notch1/HCT116 clone C5 [7]
  IC50: 1100 nM
[8]
  growth of Notch1 silenced cells: failed to inhibit the growth
Notch1/HCT116 clone C4 [9]
  IC50: 800 nM
pCMV/HCT116 xenografts
  tumor growth: significant tumor growth inhibition
500 mg/kg vs 5 mg/kg
  safe dose relative to dose used in efficacy studies: 100 times
nu/nu mice
  safe dose (MTD check): ≤ 500 mg/kg
Notch2 in HCT116 cells
  Notch2 expression: no change
Purified NRR protein
  thermal stabilization of NRR protein: increased stabilization of NRR protein
[10]
  binding to NRR by CETSA: binds directly to NRR
pCMV/HCT116 cells [11]
  reduction of colony forming ability: 22.3%
Notch1/HCT116 clone C5 [12]
  reduction of colony forming ability: 26.66%
Notch1/HCT116 clone C5 [13]
  induction of apoptosis: 13.2%
Notch1/HCT116 clone C4 [14]
  induction of apoptosis: 13.4%
pCMV/HCT116 cells [15]
  induction of apoptosis: 25.8%
HCT116 cells [16]
  induction of apoptosis: 19.9%
SW-620 cells
  induction of apoptosis: 9.57%
